PMC7871173 (Journal of medicinal chemistry, 2019)
“Also recorded” adds a separate entry of the source.

Tests used:
[1] = target: T1, CB1 receptor (Mus musculus, UniProt P47746); conditions: for activity in the tetrad or psychoactive effects: see Supporting Information
[2] = target: T1, CB1 receptor; experiment: Augmentation of CP 55,940 antinociception in the tail withdrawal test; type: in vivo; conditions: 40 mg/kg
[3] = target: T2, CB1 receptor (Homo sapiens, UniProt P21554); experiment: cell-based; conditions: read-out: Emax PAM, maximum EC20 CP 55,940-induced β-arrestin recruitment relative to maximum achievable with CP 55,940
T2 sequence (P21554 whole entry): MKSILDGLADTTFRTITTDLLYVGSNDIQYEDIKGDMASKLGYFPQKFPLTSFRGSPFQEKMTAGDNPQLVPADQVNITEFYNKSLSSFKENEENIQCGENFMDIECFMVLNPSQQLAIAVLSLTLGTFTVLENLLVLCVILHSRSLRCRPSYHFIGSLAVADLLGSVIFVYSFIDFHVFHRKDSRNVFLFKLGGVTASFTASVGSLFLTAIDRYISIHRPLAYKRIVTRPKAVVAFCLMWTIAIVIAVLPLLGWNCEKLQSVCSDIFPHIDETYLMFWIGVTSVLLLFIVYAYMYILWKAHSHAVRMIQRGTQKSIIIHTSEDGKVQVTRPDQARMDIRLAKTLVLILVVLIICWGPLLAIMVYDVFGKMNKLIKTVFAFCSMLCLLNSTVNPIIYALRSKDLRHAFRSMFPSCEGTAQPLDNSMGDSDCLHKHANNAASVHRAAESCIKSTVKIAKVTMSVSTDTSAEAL

[4] = target: T2, CB1 receptor; type: cell-based; conditions: for CB1 PAM activity (in words): enhancement of CP 55,940-induced β-arrestin recruitment; for enhancement of CP 55,940-induced β-arrestin recruitment: at 300 nM
[5] = target: T2, CB1 receptor; type: binding; conditions: 1 μM compound; for % enhancement of [3H]CP 55,940 binding: three independent experiments
[6] = target: T2, CB1 receptor; type: cell-based; conditions: compound alone; relative to maximum achievable with CP 55,940
[7] = in vitro; conditions: rat, rat liver microsomes
[8] = Mouse liver microsomal stability; type: in vitro ADME; conditions: mouse liver microsomes
[9] = tested on: mouse chronic constrictive injury of the sciatic nerve (CCI) model of neuropathic pain; conditions: 40 mg/kg; cited from earlier work
[10] = compared to nearest nitro analogue

T1 sequence (P47746 whole entry): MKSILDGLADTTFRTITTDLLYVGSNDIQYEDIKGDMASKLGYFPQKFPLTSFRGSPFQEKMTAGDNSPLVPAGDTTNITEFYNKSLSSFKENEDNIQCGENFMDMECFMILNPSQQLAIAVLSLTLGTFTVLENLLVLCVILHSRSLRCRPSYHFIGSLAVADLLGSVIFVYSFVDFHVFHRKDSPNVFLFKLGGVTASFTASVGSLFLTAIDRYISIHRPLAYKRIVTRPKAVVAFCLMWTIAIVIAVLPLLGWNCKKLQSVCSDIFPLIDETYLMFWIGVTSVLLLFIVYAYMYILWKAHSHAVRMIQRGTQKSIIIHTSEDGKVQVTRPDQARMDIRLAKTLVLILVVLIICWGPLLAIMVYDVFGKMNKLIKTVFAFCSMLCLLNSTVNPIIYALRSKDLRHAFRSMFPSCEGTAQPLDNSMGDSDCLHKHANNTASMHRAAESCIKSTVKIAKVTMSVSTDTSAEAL

SMILES: N#Cc1ccc2c(C(CC(F)(F)F)c3cccs3)c(-c3ccccc3)[nH]c2c1 (racemic) [(±)-1, 2-Phenyl-3-(3,3,3-trifluoro-1-(thiophen-2-yl)propyl)-1H-indole-6-carbonitrile]
- antinociception in the tail withdrawal test ([1]; 40 mg/kg, administered alone): did not produce antinociception
- hypothermia ([1]; 40 mg/kg, administered alone): did not produce hypothermia
- immobility in the catalepsy bar test ([1]; 40 mg/kg, administered alone): did not produce hypothermia or cause immobility in the catalepsy bar test
- locomotor behavior (distance traveled, immobility time) ([1]; 40 mg/kg, administered alone): did not affect either the distance traveled or immobility time
- pharmacological effects in the tetrad assay ([1]; 40 mg/kg, administered alone): did not elicit pharmacological effects
- activity in the tetrad or psychoactive effects [1]: neither ZCZ011 or (±)-1 showed any activity in the tetrad or psychoactive effects
- shift of dose–response relationship of CP 55,940 in producing antinociception [2]: significant leftward shifts
- Emax [3]: 100 ± 25%

SMILES: N#Cc1ccc2c(C(C[N+](=O)[O-])c3cccs3)c(-c3ccccc3)[nH]c2c1 (racemic) [(±)-8]
- CB1 PAM activity (in words) [4]: moderately potent and efficacious CB1 PAMs

SMILES: N#Cc1ccc2c(C(C[N+](=O)[O-])c3cccs3)c(-c3ccccc3)[nH]c2c1 (single isomer, unassigned; (+)) [(+)-8]
- CB1 PAM activity (in words) [4]: effectively pure PAMs
- enhancement in binding of [3H]CP 55,940 (in words) [5]: no enhancement
- Emax Ago [6]: 6%

SMILES: N#Cc1ccc2c(C(C[N+](=O)[O-])c3cccs3)c(-c3ccccc3)[nH]c2c1 (single isomer, unassigned; (-)) [(−)-8]
- CB1 PAM activity (in words) [4]: effectively pure PAMs
- enhancement in binding of [3H]CP 55,940 (in words) [5]: no enhancement

SMILES: N#Cc1ccc2c([C@@H](CC(F)(F)F)c3cccs3)c(-c3ccccc3)[nH]c2c1 [(R)-(−)-1]
- enhancement in binding of [3H]CP 55,940 (in words) [5]: significant enhancement
- % enhancement of [3H]CP 55,940 binding [5]: 131.4 ± 4.3%
- Emax [3]: 125 ± 29%

SMILES: N#Cc1ccc2c([C@H](CC(F)(F)F)c3cccs3)c(-c3ccccc3)[nH]c2c1 [(S)-(+)-1]
- enhancement in binding of [3H]CP 55,940 (in words) [5]: significant enhancement
- % enhancement of [3H]CP 55,940 binding [5]: 144.4 ± 3.5%
- Emax [3]: 79 ± 32%

SMILES: Cc1ccc2[nH]c(-c3ccccc3)c(C(C[N+](=O)[O-])c3cccs3)c2c1 (stereo not shown) [Compound 2]
- CB1 PAM activity (in words) [4]: poor potency

SMILES: N#Cc1ccc2[nH]c(-c3ccccc3)c(C(C[N+](=O)[O-])c3cccs3)c2c1 (stereo not shown) [Compound 3]
- CB1 PAM activity (in words) [4]: poor potency

SMILES: O=[N+]([O-])CC(c1cccs1)c1c(-c2ccccc2)[nH]c2ccc([N+](=O)[O-])cc12 (stereo not shown) [Compound 4]
- CB1 PAM activity (in words) [4]: poor potency

SMILES: Cc1ccc2c(C(C[N+](=O)[O-])c3cccs3)c(-c3ccccc3)[nH]c2c1 (stereo not shown) [Compound 5, reference compound]
- CB1 PAM activity (in words) [4]: moderately potent and efficacious CB1 PAMs
- enhancement in binding of [3H]CP 55,940 (in words) [5]: significant enhancement
- activity in the tetrad or psychoactive effects [1]: neither ZCZ011 or (±)-1 showed any activity in the tetrad or psychoactive effects
- half-life [7]: ≤ 10 min
- half-life [8]: ≤ 10 min
- anti-allodynic effects [9]: produces anti-allodynic effects

SMILES: O=[N+]([O-])CC(c1cccs1)c1c(-c2ccccc2)[nH]c2cc(Cl)ccc12 (stereo not shown) [Compound 6]
- CB1 PAM activity (in words) [4]: moderately potent and efficacious CB1 PAMs

SMILES: O=[N+]([O-])CC(c1cccs1)c1c(-c2ccccc2)[nH]c2cc(C(F)(F)F)ccc12 (stereo not shown) [Compound 7]
- CB1 PAM activity (in words) [4]: moderately potent and efficacious CB1 PAMs

SMILES: Cc1ccc2c(C(CC#N)c3ccccc3)c(-c3ccccc3)[nH]c2c1 (stereo not shown) [Compound 30]
- CB1 PAM activity (in words) [4]: modest

SMILES: N#CCC(c1ccccc1)c1c(-c2ccccc2)[nH]c2cc(Cl)ccc12 (stereo not shown) [Compound 31]
- CB1 PAM activity (in words) [4]: somewhat reduced potency and efficacy
- metabolic stability in rat liver microsomes (in words) [10]: similarly poor metabolic stability

SMILES: Cc1ccc2c(C(c3ccccc3)C(C#N)C#N)c(-c3ccccc3)[nH]c2c1 (stereo not shown) [Compound 32]
- CB1 PAM activity (in words) [4]: modest

SMILES: Cc1ccc2c(C(C(=O)C(F)(F)F)c3ccccc3)c(-c3ccccc3)[nH]c2c1 (stereo not shown) [Compound 38]
- enhancement of CP 55,940-induced β-arrestin recruitment [4]: 50–100%

SMILES: Cc1ccc2c(C(CC(F)(F)F)c3ccccc3)c(-c3ccccc3)[nH]c2c1 (stereo not shown) [Compound 39]
- enhancement of CP 55,940-induced β-arrestin recruitment [4]: 50–100%

SMILES: O=C(O)c1ccc2c(C(CC(F)(F)F)c3cccs3)c(-c3ccccc3)[nH]c2c1 (stereo not shown) [Compound 51]
- CB1 PAM activity (in words) [4]: none of 6-CO2H (51), 6-CH2OH (52), 6-NHAc (53), 6-NH2 (55), or 6-NHSO2Me (56) gave active compounds; also recorded: inactive

SMILES: OCc1ccc2c(C(CC(F)(F)F)c3cccs3)c(-c3ccccc3)[nH]c2c1 (stereo not shown) [Compound 52, (2-Phenyl-3-(3,3,3-trifluoro-1-(thiophen-2-yl)propyl)-1H-indol-6-yl)methanol]
- CB1 PAM activity (in words) [4]: none of 6-CO2H (51), 6-CH2OH (52), 6-NHAc (53), 6-NH2 (55), or 6-NHSO2Me (56) gave active compounds

SMILES: CC(=O)Nc1ccc2c(C(CC(F)(F)F)c3cccs3)c(-c3ccccc3)[nH]c2c1 (stereo not shown) [Compound 53, N-(2-Phenyl-3-(3,3,3-trifluoro-1-(thiophen-2-yl)propyl)-1H-indol-6-yl)acetamide]
- CB1 PAM activity (in words) [4]: none of 6-CO2H (51), 6-CH2OH (52), 6-NHAc (53), 6-NH2 (55), or 6-NHSO2Me (56) gave active compounds

SMILES: CC(=O)c1ccc2c(C(CC(F)(F)F)c3cccs3)c(-c3ccccc3)[nH]c2c1 (stereo not shown) [Compound 54, 1-(2-Phenyl-3-(3,3,3-trifluoro-1-(thiophen-2-yl)propyl)-1H-indol-6-yl)ethan-1-one]
- CB1 PAM activity (in words) [4]: potent and efficacious

SMILES: Nc1ccc2c(C(CC(F)(F)F)c3cccs3)c(-c3ccccc3)[nH]c2c1 (stereo not shown) [Compound 55, 2-Phenyl-3-(3,3,3-trifluoro-1-(thiophen-2-yl)propyl)-1H-indol-6-amine]
- CB1 PAM activity (in words) [4]: none of 6-CO2H (51), 6-CH2OH (52), 6-NHAc (53), 6-NH2 (55), or 6-NHSO2Me (56) gave active compounds

SMILES: CS(=O)(=O)Nc1ccc2c(C(CC(F)(F)F)c3cccs3)c(-c3ccccc3)[nH]c2c1 (stereo not shown) [Compound 56, N-(2-Phenyl-3-(3,3,3-trifluoro-1-(thiophen-2-yl)propyl)-1H-indol-6-yl)methanesulfonamide]
- CB1 PAM activity (in words) [4]: none of 6-CO2H (51), 6-CH2OH (52), 6-NHAc (53), 6-NH2 (55), or 6-NHSO2Me (56) gave active compounds
